Measured values taken from PubChem BioAssay (NCI).
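Cultured in 96-well plates, cells were exposed to test compound for 48 hours across five concentrations. The concentration for full growth arrest is given as TGI.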

How the values were obtained:
Experiment in all cases: DTP human tumour cell line panel, 48 h
ACHN renal = tested on: ACHN renal
UACC-257 melanoma = tested on: UACC-257 melanoma
HL-60(TB) leukemia = tested on: HL-60(TB) leukemia
SN12C renal = tested on: SN12C renal
UO-31 renal = tested on: UO-31 renal
RPMI-8226 leukemia = tested on: RPMI-8226 leukemia
NCI-H460 lung = tested on: NCI-H460 lung
SW-620 colon = tested on: SW-620 colon
IGROV1 ovarian = tested on: IGROV1 ovarian
EKVX NSCLC = tested on: EKVX NSCLC
MALME-3M melanoma = tested on: MALME-3M melanoma
NCI-H23 lung = tested on: NCI-H23 lung
SK-MEL-28 melanoma = tested on: SK-MEL-28 melanoma
RXF 393 renal = tested on: RXF 393 renal
SK-OV-3 ovarian = tested on: SK-OV-3 ovarian
SK-MEL-5 melanoma = tested on: SK-MEL-5 melanoma
OVCAR-8 ovarian = tested on: OVCAR-8 ovarian
A549 NSCLC = tested on: A549 NSCLC
COLO 205 colon = tested on: COLO 205 colon
HCT-116 colon = tested on: HCT-116 colon
NCI-H522 lung = tested on: NCI-H522 lung
CCRF-CEM leukemia = tested on: CCRF-CEM leukemia
HCT-15 colon = tested on: HCT-15 colon
OVCAR-3 ovarian = tested on: OVCAR-3 ovarian
MOLT-4 leukemia = tested on: MOLT-4 leukemia
DLD-1 colon = tested on: DLD-1 colon
SNB-78 CNS = tested on: SNB-78 CNS
M14 melanoma = tested on: M14 melanoma
SR leukemia = tested on: SR leukemia
DMS 114 small cell lung = tested on: DMS 114 small cell lung
OVCAR-5 ovarian = tested on: OVCAR-5 ovarian
TK-10 renal = tested on: TK-10 renal
LXFL 529 NSCLC = tested on: LXFL 529 NSCLC
KM20L2 colon = tested on: KM20L2 colon
M19-MEL melanoma = tested on: M19-MEL melanoma
U251 CNS = tested on: U251 CNS
DMS 273 small cell lung = tested on: DMS 273 small cell lung
HOP-18 NSCLC = tested on: HOP-18 NSCLC
LOX IMVI melanoma = tested on: LOX IMVI melanoma
SF-268 CNS = tested on: SF-268 CNS
HCC-2998 colon = tested on: HCC-2998 colon
UACC-62 melanoma = tested on: UACC-62 melanoma
NCI-H226 lung = tested on: NCI-H226 lung
KM12 colon = tested on: KM12 colon
HOP-92 NSCLC = tested on: HOP-92 NSCLC
SK-MEL-2 melanoma = tested on: SK-MEL-2 melanoma
SNB-19 CNS = tested on: SNB-19 CNS
OVCAR-4 ovarian = tested on: OVCAR-4 ovarian
K-562 leukemia = tested on: K-562 leukemia
SF-295 CNS = tested on: SF-295 CNS
HT29 colon = tested on: HT29 colon
SF-539 CNS = tested on: SF-539 CNS
SNB-75 CNS = tested on: SNB-75 CNS
786-0 renal = tested on: 786-0 renal
CAKI-1 renal = tested on: CAKI-1 renal
HOP-62 NSCLC = tested on: HOP-62 NSCLC
MCF7 breast = tested on: MCF7 breast
HS 578T breast = tested on: HS 578T breast
BT-549 breast = tested on: BT-549 breast
PC-3 prostate = tested on: PC-3 prostate
A498 renal = tested on: A498 renal
MDA-MB-435 = tested on: MDA-MB-435
T-47D breast = tested on: T-47D breast
DU-145 prostate = tested on: DU-145 prostate
MDA-MB-231 breast = tested on: MDA-MB-231 breast
NCI/ADR-RES ovarian = tested on: NCI/ADR-RES ovarian

COc1cc(-c2cccs2)sc1-c1cccs1
TGI (ACHN renal): > 100 µM
TGI (UACC-257 melanoma): > 100 µM
TGI (HL-60(TB) leukemia): 36.6 µM
TGI (SN12C renal): > 100 µM
TGI (UO-31 renal): > 100 µM
TGI (RPMI-8226 leukemia): > 100 µM
TGI (NCI-H460 lung): > 100 µM
TGI (SW-620 colon): > 100 µM
TGI (IGROV1 ovarian): > 100 µM
TGI (EKVX NSCLC): > 100 µM
TGI (MALME-3M melanoma): > 100 µM
TGI (NCI-H23 lung): > 100 µM
TGI (SK-MEL-28 melanoma): > 100 µM
TGI (RXF 393 renal): 54.1 µM
TGI (SK-OV-3 ovarian): > 100 µM
TGI (SK-MEL-5 melanoma): > 100 µM
TGI (OVCAR-8 ovarian): > 100 µM
TGI (A549 NSCLC): > 100 µM
TGI (COLO 205 colon): 27.3 µM
TGI (HCT-116 colon): > 100 µM
TGI (NCI-H522 lung): > 100 µM
TGI (CCRF-CEM leukemia): > 100 µM
TGI (HCT-15 colon): > 100 µM
TGI (OVCAR-3 ovarian): > 100 µM
TGI (MOLT-4 leukemia): > 100 µM
TGI (DLD-1 colon): > 100 µM
TGI (SNB-78 CNS): > 100 µM
TGI (M14 melanoma): > 100 µM
TGI (SR leukemia): 61.8 µM
TGI (DMS 114 small cell lung): 94.3 µM
TGI (OVCAR-5 ovarian): > 100 µM
TGI (TK-10 renal): > 100 µM
TGI (LXFL 529 NSCLC): > 100 µM
TGI (KM20L2 colon): 85.1 µM
TGI (M19-MEL melanoma): > 100 µM
TGI (U251 CNS): > 100 µM
TGI (DMS 273 small cell lung): > 100 µM
TGI (HOP-18 NSCLC): 17.2 µM
TGI (LOX IMVI melanoma): > 100 µM
TGI (SF-268 CNS): > 100 µM
TGI (HCC-2998 colon): > 100 µM
TGI (UACC-62 melanoma): > 100 µM
TGI (NCI-H226 lung): > 100 µM
TGI (KM12 colon): > 100 µM
TGI (HOP-92 NSCLC): 78.9 µM
TGI (SK-MEL-2 melanoma): > 100 µM
TGI (SNB-19 CNS): > 100 µM
TGI (OVCAR-4 ovarian): > 100 µM
TGI (K-562 leukemia): 51.5 µM
TGI (SF-295 CNS): > 100 µM
TGI (HT29 colon): 53.3 µM
TGI (SF-539 CNS): > 100 µM
TGI (SNB-75 CNS): 66.5 µM
TGI (786-0 renal): > 100 µM

N#Cc1cccc(-n2[nH]c(=O)ccc2=O)c1
TGI (ACHN renal): > 100 µM
TGI (UACC-257 melanoma): > 100 µM
TGI (HL-60(TB) leukemia): > 100 µM
TGI (UO-31 renal): > 100 µM
TGI (RPMI-8226 leukemia): > 100 µM
TGI (NCI-H460 lung): > 100 µM
TGI (SW-620 colon): > 100 µM
TGI (IGROV1 ovarian): > 100 µM
TGI (MALME-3M melanoma): > 100 µM
TGI (NCI-H23 lung): > 100 µM
TGI (SK-MEL-28 melanoma): > 100 µM
TGI (SK-MEL-5 melanoma): > 100 µM
TGI (OVCAR-8 ovarian): > 100 µM
TGI (A549 NSCLC): > 100 µM
TGI (COLO 205 colon): > 100 µM
TGI (HCT-116 colon): > 100 µM
TGI (NCI-H522 lung): > 100 µM
TGI (CCRF-CEM leukemia): > 100 µM
TGI (HCT-15 colon): > 100 µM
TGI (OVCAR-3 ovarian): > 100 µM
TGI (MOLT-4 leukemia): > 100 µM
TGI (DLD-1 colon): > 100 µM
TGI (M14 melanoma): > 100 µM
TGI (SR leukemia): > 100 µM
TGI (DMS 114 small cell lung): > 100 µM
TGI (OVCAR-5 ovarian): > 100 µM
TGI (TK-10 renal): > 100 µM
TGI (CAKI-1 renal): > 100 µM
TGI (LXFL 529 NSCLC): > 100 µM
TGI (KM20L2 colon): > 100 µM
TGI (M19-MEL melanoma): > 100 µM
TGI (U251 CNS): > 100 µM
TGI (DMS 273 small cell lung): > 100 µM
TGI (SF-268 CNS): > 100 µM
TGI (HCC-2998 colon): > 100 µM
TGI (UACC-62 melanoma): > 100 µM
TGI (NCI-H226 lung): > 100 µM
TGI (KM12 colon): > 100 µM
TGI (HOP-92 NSCLC): > 100 µM
TGI (SK-MEL-2 melanoma): > 100 µM
TGI (SNB-19 CNS): > 100 µM
TGI (HOP-62 NSCLC): > 100 µM
TGI (OVCAR-4 ovarian): > 100 µM
TGI (K-562 leukemia): > 100 µM
TGI (SF-295 CNS): > 100 µM
TGI (HT29 colon): > 100 µM
TGI (SF-539 CNS): > 100 µM
TGI (SNB-75 CNS): > 100 µM
TGI (786-0 renal): > 100 µM

COc1cc2c(cc1OC)C(Cl)C(c1ccc(F)cc1)=C2Cl (stereo not drawn)
TGI (ACHN renal): 26.1 µM
TGI (MCF7 breast): 23.9 µM
TGI (HS 578T breast): > 100 µM
TGI (UACC-257 melanoma): 28.8 µM
TGI (BT-549 breast): 15.6 µM
TGI (HL-60(TB) leukemia): 24.2 µM
TGI (SN12C renal): 27 µM
TGI (UO-31 renal): 33.3 µM
TGI (RPMI-8226 leukemia): 39.2 µM
TGI (NCI-H460 lung): 24.8 µM
TGI (SW-620 colon): 30.4 µM
TGI (PC-3 prostate): 24.9 µM
TGI (IGROV1 ovarian): 37.2 µM
TGI (EKVX NSCLC): 40.7 µM
TGI (MALME-3M melanoma): 28.7 µM
TGI (A498 renal): 29.9 µM
TGI (NCI-H23 lung): 16.5 µM
TGI (SK-MEL-28 melanoma): 33.3 µM
TGI (RXF 393 renal): 30.1 µM
TGI (SK-OV-3 ovarian): 41.9 µM
TGI (SK-MEL-5 melanoma): 27.4 µM
TGI (MDA-MB-435): 23.6 µM
TGI (OVCAR-8 ovarian): 36.8 µM
TGI (A549 NSCLC): 32.8 µM
TGI (COLO 205 colon): 31 µM
TGI (T-47D breast): 21.7 µM
TGI (HCT-116 colon): 25.6 µM
TGI (NCI-H522 lung): 21.8 µM
TGI (CCRF-CEM leukemia): 29.1 µM
TGI (HCT-15 colon): 28.4 µM
TGI (OVCAR-3 ovarian): 30.6 µM
TGI (DU-145 prostate): 37.5 µM
TGI (MOLT-4 leukemia): 13.1 µM
TGI (MDA-MB-231 breast): 27 µM
TGI (DLD-1 colon): 32.9 µM
TGI (SNB-78 CNS): 68.6 µM
TGI (M14 melanoma): 29.2 µM
TGI (NCI/ADR-RES ovarian): 34.5 µM
TGI (SR leukemia): 14.3 µM
TGI (DMS 114 small cell lung): 28.5 µM
TGI (OVCAR-5 ovarian): 30.2 µM
TGI (TK-10 renal): 28.5 µM
TGI (CAKI-1 renal): 29.1 µM
TGI (LXFL 529 NSCLC): 24 µM
TGI (KM20L2 colon): 28 µM
TGI (M19-MEL melanoma): 38.7 µM
TGI (U251 CNS): 26.6 µM
TGI (DMS 273 small cell lung): 31.9 µM
TGI (HOP-18 NSCLC): 30.5 µM
TGI (LOX IMVI melanoma): 27.7 µM
TGI (SF-268 CNS): 39.5 µM
TGI (HCC-2998 colon): 28.5 µM
TGI (UACC-62 melanoma): 29.8 µM
TGI (NCI-H226 lung): 74 µM
TGI (KM12 colon): 32.3 µM
TGI (HOP-92 NSCLC): 22.6 µM
TGI (SK-MEL-2 melanoma): 26.5 µM
TGI (SNB-19 CNS): 37.5 µM
TGI (HOP-62 NSCLC): 30.1 µM
TGI (K-562 leukemia): 44.6 µM
TGI (SF-295 CNS): 29 µM
TGI (HT29 colon): 32.5 µM
TGI (SF-539 CNS): 30.4 µM
TGI (SNB-75 CNS): 29.1 µM
TGI (786-0 renal): 24.8 µM
